Measurements: PubChem BioAssay (NCI)
Values joined by “and” are separate entries in the source; they are usually repeats but may differ in a detail not shown here. Equal values may be shown once.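 Cultured in 96-well plates, cells were exposed to test compound for 48 hours across five concentrations. At the GI50, growth is halved. TGI denotes the concentration required for complete inhibition of growth.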

How the values were obtained:
Assay in all cases: NCI anticancer screen, dose series, 48 h
[1] = system: 786-0 renal
[2] = system: A498 renal
[3] = system: A549 NSCLC
[4] = system: ACHN renal
[5] = system: BT-549 breast
[6] = system: CAKI-1 renal
[7] = system: CCRF-CEM leukemia
[8] = system: COLO 205 colon
[9] = system: DU-145 prostate
[10] = system: EKVX NSCLC
[11] = system: HCC-2998 colon
[12] = system: HCT-116 colon
[13] = system: HCT-15 colon
[14] = system: HL-60(TB) leukemia
[15] = system: HOP-62 NSCLC
[16] = system: HOP-92 NSCLC
[17] = system: HS 578T breast
[18] = system: HT29 colon
[19] = system: IGROV1 ovarian
[20] = system: K-562 leukemia
[21] = system: KM12 colon
[22] = system: LOX IMVI melanoma
[23] = system: M14 melanoma
[24] = system: MALME-3M melanoma
[25] = system: MCF7 breast
[26] = system: MDA-MB-231 breast
[27] = system: MDA-MB-435
[28] = system: MDA-N
[29] = system: MOLT-4 leukemia
[30] = system: NCI-H226 lung
[31] = system: NCI-H23 lung
[32] = system: NCI-H460 lung
[33] = system: NCI-H522 lung
[34] = system: NCI/ADR-RES ovarian
[35] = system: OVCAR-3 ovarian
[36] = system: OVCAR-4 ovarian
[37] = system: OVCAR-5 ovarian
[38] = system: OVCAR-8 ovarian
[39] = system: PC-3 prostate
[40] = system: RPMI-8226 leukemia
[41] = system: SF-268 CNS
[42] = system: SF-295 CNS
[43] = system: SF-539 CNS
[44] = system: SK-MEL-2 melanoma
[45] = system: SK-MEL-28 melanoma
[46] = system: SK-MEL-5 melanoma
[47] = system: SK-OV-3 ovarian
[48] = system: SN12C renal
[49] = system: SNB-19 CNS
[50] = system: SNB-75 CNS
[51] = system: SR leukemia
[52] = system: SW-620 colon
[53] = system: T-47D breast
[54] = system: TK-10 renal
[55] = system: U251 CNS
[56] = system: UACC-257 melanoma
[57] = system: UACC-62 melanoma
[58] = system: UO-31 renal

Molecule `COc1ccc2c(c1OC)CN1CCc3cc4c(cc3C1C2)OCO4` (configuration not stated) has a TGI [1] of over 100 µM, a TGI [2] of over 100 µM and a TGI [3] of over 100 µM. The TGI [4] was over 100 µM, the TGI [5] was over 100 µM and the TGI [6] was over 100 µM. The GI50 [7] was over 100 µM, the TGI [7] was over 100 µM and the TGI [8] was over 100 µM. The TGI [9] was over 100 µM, the TGI [10] was over 100 µM and the TGI [11] was over 100 µM. For the same molecule, the TGI [12] was over 100 µM, the TGI [13] was over 100 µM and the TGI [14] was over 100 µM. It also gave a TGI [15] of over 100 µM, a TGI [16] of over 100 µM and a TGI [17] of over 100 µM. For the same molecule, the GI50 [18] was 30.8 µM and 76.1 µM, the TGI [18] was over 100 µM and the TGI [19] was over 100 µM. For the same molecule, the TGI [20] was over 100 µM, the TGI [21] was over 100 µM and the TGI [22] was over 100 µM. For the same molecule, the TGI [23] was over 100 µM, the TGI [24] was over 100 µM and the TGI [25] was over 100 µM. For the same molecule, the TGI [26] was over 100 µM, the TGI [27] was over 100 µM and the TGI [28] was over 100 µM. It also gave a TGI [29] of over 100 µM, a TGI [30] of over 100 µM and a TGI [31] of over 100 µM. It also gave a TGI [32] of over 100 µM, a TGI [33] of over 100 µM and a TGI [34] of over 100 µM. The TGI [35] was over 100 µM, the TGI [36] was over 100 µM and the TGI [37] was over 100 µM. It also gave a TGI [38] of over 100 µM, a TGI [39] of over 100 µM and a TGI [40] of over 100 µM. For the same molecule, the TGI [41] was over 100 µM, the TGI [42] was over 100 µM and the TGI [43] was over 100 µM. The TGI [44] was over 100 µM, the TGI [45] was over 100 µM and the TGI [46] was over 100 µM. The TGI [47] was over 100 µM, the TGI [48] was over 100 µM and the TGI [49] was over 100 µM. For the same molecule, the TGI [50] was over 100 µM, the TGI [51] was over 100 µM and the TGI [52] was over 100 µM. For the same molecule, the TGI [53] was over 100 µM, the TGI [54] was over 100 µM and the TGI [55] was over 100 µM. For the same molecule, the TGI [56] was over 100 µM, the TGI [57] was over 100 µM and the TGI [58] was over 100 µM.
`O=C(O)/C=N/NC(=S)NC1CCCCC1` was tested, and the TGI [1] was over 100 µM, the TGI [2] was over 100 µM and the TGI [3] was over 100 µM. The TGI [4] was over 100 µM, the TGI [5] was over 100 µM and the TGI [6] was over 100 µM. It also gave a TGI [7] of over 100 µM, a TGI [8] of over 100 µM and a TGI [9] of over 100 µM. The TGI [10] was over 100 µM, the TGI [11] was over 100 µM and the TGI [12] was over 100 µM. It also gave a TGI [13] of over 100 µM, a TGI [14] of over 100 µM and a TGI [15] of over 100 µM. For the same molecule, the TGI [16] was over 100 µM, the TGI [17] was over 100 µM and the TGI [18] was over 100 µM. It also gave a TGI [19] of over 100 µM, a TGI [20] of over 100 µM and a TGI [21] of over 100 µM. For the same molecule, the TGI [22] was over 100 µM, the TGI [23] was over 100 µM and the TGI [24] was over 100 µM. For the same molecule, the TGI [25] was over 100 µM, the TGI [26] was over 100 µM and the TGI [27] was over 100 µM. For the same molecule, the TGI [28] was over 100 µM, the TGI [29] was over 100 µM and the TGI [30] was over 100 µM. For the same molecule, the TGI [31] was over 100 µM, the TGI [32] was over 100 µM and the TGI [33] was over 100 µM. For the same molecule, the TGI [34] was over 100 µM, the TGI [35] was over 100 µM and the TGI [36] was over 100 µM. It also gave a TGI [37] of over 100 µM, a TGI [38] of over 100 µM and a TGI [39] of over 100 µM. For the same molecule, the TGI [40] was over 100 µM, the TGI [42] was over 100 µM and the TGI [43] was over 100 µM. The TGI [44] was over 100 µM, the TGI [45] was over 100 µM and the TGI [46] was over 100 µM. It also gave a TGI [47] of over 100 µM, a TGI [48] of over 100 µM and a TGI [49] of over 100 µM. It also gave a TGI [50] of over 100 µM, a TGI [51] of over 100 µM and a TGI [52] of over 100 µM. The TGI [53] was over 100 µM, the TGI [54] was over 100 µM and the TGI [55] was over 100 µM. For the same molecule, the TGI [56] was over 100 µM, the TGI [57] was over 100 µM and the TGI [58] was over 100 µM.
